Consider twelve molecules from patent US20260015350A1, “AZAQUINAZOLINE PAN-KRAS INHIBITORS” (Mirati Therapeutics, Inc., priority 2022, published 2026).

The structures appear in SMILES notation.

Test [1] addresses T1, KRas^G12V (Homo sapiens, UniProt P01116, G12V).
T1 construct: Biotinylated KRas (corresponding to amino acids 1-169, produced at Accelegan Inc.); biotin (biotinylated); purchased Accelegan Inc
The test can be described thus: KRas binding assay (TR-FRET tracer displacement), KRas G12V. Background: In TR-FRET formats the signal depends on donor and acceptor labels being close together.

Test [2] has as its system KRas-mediated phosphorylation of ERK in PSN1 cells. The test can be described thus: Inhibition of KRas-mediated phosphorylation of ERK (Cisbio HTRF pERK), PSN1 cells. The class given is cell-based. Conditions: Homo sapiens. The method, then:
(§1) Inhibition of KRas Phosphorylation of ERK (HTRF) by Exemplary Compounds of Formula (I)
(§2) Cisbio HTRF Advanced PERK Assay Catalog #64AERPEH
(§3) Day 1: Seed 6,000 cells/well-25 μl/well in 384-well white solid bottom plate; RPM1_10% FBS. Incubate overnight at 37° C./5% CO2.
(§4) Incubate for 4 hours at room temperature covered.
(§5) Read HTRF using ClarioStar

Test [3] has as its target T2, KRas^G12R (Homo sapiens, UniProt P01116, G12R).
T2 construct: Biotinylated KRas (corresponding to amino acids 1-169, produced at Accelegan Inc.); biotin (biotinylated); purchased Accelegan Inc
The test can be described thus: KRas binding assay (TR-FRET tracer displacement), KRas G12R.

For test [4], the system named is KRas-mediated phosphorylation of ERK in H727 cells. The test can be described thus: Inhibition of KRas-mediated phosphorylation of ERK (Cisbio HTRF pERK), H727 cells. The format is cell-based. Conditions: Homo sapiens, NCI-H727, H727 cells; HTRF pERK. The procedure, abridged: (§6)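 HTRF readout of phospho-ERK in cell lysates after 3 hrs of compound exposure. Dosing: 10 uM top, 3-fold steps, 10 doses, final DMSO 0.8%. Min control: 0.2 uM Trametinib. Lysis ran 40 mins at 4° C, and antibody detection 2 hrs at room temperature.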

In test [5] the test system is KRas-mediated phosphorylation of ERK in AsPC-1 cells. The test can be described thus: Inhibition of KRas-mediated phosphorylation of ERK (Cisbio HTRF pERK), AsPC-1 cells. The format is cell-based. Conditions: Homo sapiens, ASPC1, AsPC-1 cells; HTRF pERK. In outline:
as §6

Test [6] deals with T3, KRas^G12D (Homo sapiens, UniProt P01116, G12D).
T3 construct: Biotinylated KRas (corresponding to amino acids 1-169, produced at Accelegan Inc.); biotin (biotinylated); purchased Accelegan Inc
The test can be described thus: KRas binding assay (TR-FRET tracer displacement), KRas G12D.

For test [7], the system named is KRas-mediated phosphorylation of ERK in MKN1 cells. The test can be described thus: Inhibition of KRas-mediated phosphorylation of ERK (Cisbio HTRF pERK), MKN1 cells. The format is cell-based. Conditions: Homo sapiens, MKN-1. As to the method: as §1, §2, §3, §4, §5

T2 sequence (P01116 1-169 isoform P01116-2 G12R): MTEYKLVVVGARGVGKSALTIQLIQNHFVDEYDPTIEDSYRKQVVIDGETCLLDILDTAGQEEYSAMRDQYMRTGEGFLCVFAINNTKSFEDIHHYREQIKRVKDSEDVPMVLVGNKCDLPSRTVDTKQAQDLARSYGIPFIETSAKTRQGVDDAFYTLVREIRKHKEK
T1 sequence (P01116 1-169 isoform P01116-2 G12V): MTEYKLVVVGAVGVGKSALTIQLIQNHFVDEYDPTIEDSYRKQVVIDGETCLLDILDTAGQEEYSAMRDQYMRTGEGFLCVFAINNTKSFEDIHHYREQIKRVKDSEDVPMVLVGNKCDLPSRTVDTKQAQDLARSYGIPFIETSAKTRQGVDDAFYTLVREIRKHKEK
T3 sequence (P01116 1-169 isoform P01116-2 G12D): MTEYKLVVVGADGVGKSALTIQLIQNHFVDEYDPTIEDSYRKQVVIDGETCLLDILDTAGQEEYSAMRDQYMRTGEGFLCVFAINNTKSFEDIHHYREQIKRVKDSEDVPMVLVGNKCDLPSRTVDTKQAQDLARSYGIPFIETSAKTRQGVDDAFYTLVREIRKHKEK

The IC50 is the concentration at which inhibition is half-maximal. For the molecule `CCc1c(F)ccc2cc(O)cc(-c3ncc4c(N5CCCC6(CCCCO6)C5)nc(OC[C@@]56CCCN5C[C@H](F)C6)nc4c3F)c12` (stereo partly drawn) [Example 594, 5-ethyl-6-fluoro-4-(8-fluoro-2-(((2R,7aS)-2-fluorotetrahydro-1H-pyrrolizin-7a(5H)-yl)methoxy)-4-(1-oxa-8-azaspiro[5.5]undecan-8-yl)pyrido[4,3-d]pyrimidin-7-yl)naphthalen-2-ol], the concentration for half-maximal inhibition (IC50) in test [1] is 80 nM; in test [2], more than 10000 nM; in test [3] it was 53 nM; in test [4] it was 2290 nM; in test [5], 2810 nM; in test [6], 91 nM. In addition, it took 2350 nM to reach half-maximal inhibition in test [7] (IC50).
On to `CCc1c(F)ccc2cc(O)cc(-c3ncc4c(N5CCC(c6ccc(=O)[nH]n6)C5)nc(OC[C@@]56CCCN5C[C@H](F)C6)nc4c3F)c12` (stereo partly drawn) [Example 608, 6-(1-(7-(8-ethyl-7-fluoro-3-hydroxynaphthalen-1-yl)-8-fluoro-2-(((2R,7aS)-2-fluorotetrahydro-1H-pyrrolizin-7a(5H)-yl)methoxy)pyrido[4,3-d]pyrimidin-4-yl)pyrrolidin-3-yl)pyridazin-3 (2H)-one], for which the IC50 is 88 nM in test [1]; more than 10000 nM in test [2]; 267 nM in test [3]; more than 10000 nM in test [4]; more than 10000 nM in test [5]; 1250 nM in test [6]. In test [7], the IC50 is more than 10000 nM.
Turning to `CCc1c(F)ccc2cc(O)cc(-c3ncc4c(NCC5(C)CNS(=O)(=O)N5)nc(OC[C@@]56CCCN5C[C@H](F)C6)nc4c3F)c12` (stereo partly drawn) [Example 609, 3-(((7-(8-ethyl-7-fluoro-3-hydroxynaphthalen-1-yl)-8-fluoro-2-(((2R,7aS)-2-fluorohexahydro-1H-pyrrolizin-7a-yl)methoxy)pyrido[4,3-d]pyrimidin-4-yl)amino)methyl)-3-methyl-1,2,5-thiadiazolidine 1,1-dioxide], the IC50 in test [1] was less than 2 nM; in test [2], more than 10000 nM; in test [3], less than 2 nM; in test [4] it was 880 nM; in test [5] it was 1390 nM; in test [6], less than 2 nM. The molecule further displayed an IC50 in test [7] of 92 nM.
`CCc1c(F)ccc2cc(O)cc(-c3ncc4c(N5CCC(N6C(=O)CCC6=O)C5)nc(OC[C@@]56CCCN5C[C@H](F)C6)nc4c3F)c12` (stereo partly drawn) [Example 615, 1′-(7-(8-ethyl-7-fluoro-3-hydroxynaphthalen-1-yl)-8-fluoro-2-(((2R,7aS)-2-fluorotetrahydro-1H-pyrrolizin-7a(5H)-yl)methoxy)pyrido[4,3-d]pyrimidin-4-yl)-[1,3′-bipyrrolidine]-2,5-dione]: the IC50 was 222 nM in test [1]; more than 10000 nM in test [2]; 421 nM in test [3]; more than 10000 nM in test [4]; 7210 nM in test [5]; 1990 nM in test [6]. The molecule further gave an IC50 in test [7] of 1530 nM.
With `CCc1c(F)ccc2cc(O)cc(-c3ncc4c(N5CCCCC(S(N)(=O)=O)C5)nc(OC[C@@]56CCCN5C[C@H](F)C6)nc4c3F)c12` (stereo partly drawn) [Example 633, 1-(7-(8-ethyl-7-fluoro-3-hydroxynaphthalen-1-yl)-8-fluoro-2-(((2R,7aS)-2-fluorohexahydro-1H-pyrrolizin-7a-yl)methoxy)pyrido[4,3-d]pyrimidin-4-yl)azepane-3-sulfonamide], the IC50 in test [1] was 2820 nM; in test [2], more than 10000 nM; in test [3], 6610 nM; in test [4] it was more than 10000 nM; in test [5], more than 10000 nM; in test [6] it was 8850 nM. Also, in test [7], the IC50 was more than 10000 nM.
For `CCc1c(F)ccc2cc(O)cc(-c3ncc4c(N5CCC[C@H](c6ccnn6C)CC5)nc(OC[C@@]56CCCN5C[C@H](F)C6)nc4c3F)c12` [Example 634, 5-ethyl-6-fluoro-4-(8-fluoro-2-(((2R,7aS)-2-fluorotetrahydro-1H-pyrrolizin-7a(5H)-yl)methoxy)-4-((S)-4-(1-methyl-1H-pyrazol-5-yl)azepan-1-yl)pyrido[4,3-d]pyrimidin-7-yl)naphthalen-2-ol], the IC50 in test [1] was 262 nM; in test [2], more than 10000 nM; in test [3], 839 nM; in test [4], 6210 nM; in test [5], more than 10000 nM; in test [6] it was 2240 nM. In test [7], 2980 nM corresponded to half-maximal inhibition (IC50).
As for `CCc1c(F)ccc2cc(O)cc(-c3ncc4c(NS(=O)(=O)C[C@H]5CNCCO5)nc(OC[C@@]56CCCN5C[C@H](F)C6)nc4c3F)c12` [Example 637, N-(7-(8-ethyl-7-fluoro-3-hydroxynaphthalen-1-yl)-8-fluoro-2-(((2R,7aS)-2-fluorotetrahydro-1H-pyrrolizin-7a(5H)-yl)methoxy)pyrido[4,3-d]pyrimidin-4-yl)-1-((R)-morpholin-2-yl)methanesulfonamide], the IC50 is 3790 nM in test [1]; more than 10000 nM in test [2]; 2250 nM in test [3]; more than 10000 nM in test [4]; more than 10000 nM in test [5]; 1220 nM in test [6]. Further, in test [7], the IC50 was more than 10000 nM.
Consider `CCc1c(F)ccc2cc(O)cc(-c3ncc4c(NCc5cnn(C(=O)N(C)C)c5N)nc(OC[C@@]56CCCN5C[C@H](F)C6)nc4c3F)c12` [Example 640, 5-amino-4-(((7-(8-ethyl-7-fluoro-3-hydroxynaphthalen-1-yl)-8-fluoro-2-(((2R,7aS)-2-fluorohexahydro-1H-pyrrolizin-7a-yl)methoxy)pyrido[4,3-d]pyrimidin-4-yl)amino)methyl)-N,N-dimethyl-1H-pyrazole-1-carboxamide], for which the IC50 in test [1] is 16 nM; in test [2], more than 10000 nM; in test [3] it was 17 nM; in test [4], 889 nM; in test [5], 5130 nM; in test [6] it was 83 nM. In addition, in test [7], the IC50 was found to be 208 nM.
As to `CCc1c(F)ccc2cc(O)cc(-c3ncc4c(N5CCCC6(C[C@H](O)[C@H](O)CO6)C5)nc(OC[C@@]56CCCN5C[C@H](F)C6)nc4c3F)c12` (stereo partly drawn) [Example 642, (3R,4S)-8-(7-(8-ethyl-7-fluoro-3-hydroxynaphthalen-1-yl)-8-fluoro-2-(((2R,7aS)-2-fluorohexahydro-1H-pyrrolizin-7a-yl)methoxy)pyrido[4,3-d]pyrimidin-4-yl)-1-oxa-8-azaspiro[5.5]undecane-3,4-diol], the IC50 in test [1] was 235 nM; in test [2], more than 10000 nM; in test [3] it was 195 nM; in test [4], more than 10000 nM; in test [5], more than 10000 nM; in test [6] it was 864 nM. In test [7], this molecule showed an IC50 of 2870 nM.
In the case of `CCc1c(F)ccc2cc(O)cc(-c3ncc4c(N[C@H](C)c5cc(C(=O)N(C)C)nn5C)nc(OC[C@@]56CCCN5C[C@H](F)C6)nc4c3F)c12` [Example 651, 5-((R)-1-((7-(8-ethyl-7-fluoro-3-hydroxynaphthalen-1-yl)-8-fluoro-2-(((2R,7aS)-2-fluorohexahydro-1H-pyrrolizin-7a-yl)methoxy)pyrido[4,3-d]pyrimidin-4-yl)amino)ethyl)-N,N,1-trimethyl-1H-pyrazole-3-carboxamide], the IC50 in test [1] is 10 nM; in test [2], more than 10000 nM; in test [3], 15 nM; in test [4], 1790 nM; in test [5], 1460 nM; in test [6], 30 nM. The molecule further gave an IC50 in test [7] of 546 nM.
Turning to `CCc1c(F)ccc2cc(O)cc(-c3ncc4c(N5CCCC6(CCNS(=O)(=O)N6)C5)nc(OC[C@@]56CCCN5C[C@H](F)C6)nc4c3F)c12` (stereo partly drawn) [Example 656, 8-(7-(8-ethyl-7-fluoro-3-hydroxynaphthalen-1-yl)-8-fluoro-2-(((2R,7aS)-2-fluorotetrahydro-1H-pyrrolizin-7a(5H)-yl)methoxy)pyrido[4,3-d]pyrimidin-4-yl)-2-thia-1,3,8-triazaspiro[5.5]undecane 2,2-dioxide], the IC50 in test [1] is 6 nM; in test [2], 3240 nM; in test [3], 10 nM; in test [4] it was 2380 nM; in test [5] it was 1900 nM; in test [6], 5 nM. In test [7], this molecule yielded an IC50 of 943 nM.
For `CN(C)C(=O)c1cc2n(n1)CCCN(c1nc(OCC34CCCN3CCC4)nc3c(F)c(-c4cc(O)cc(Cl)c4C4CC4)ncc13)C2` [Example 744, 5-(7-(3-chloro-2-cyclopropyl-5-hydroxyphenyl)-8-fluoro-2-((hexahydro-1H-pyrrolizin-7a-yl)methoxy)pyrido[4,3-d]pyrimidin-4-yl)-N,N-dimethyl-5,6,7,8-tetrahydro-4H-pyrazolo[1,5-a][1,4]diazepine-2-carboxamide], the IC50 in test [1] is less than 2 nM; in test [2], more than 10000 nM; in test [3], 2 nM; in test [4] it was 5730 nM; in test [5], 2730 nM; in test [6] it was less than 2 nM. Further, in test [7], the IC50 is more than 10000 nM.
